Consider 23 molecules from patent publication US7329681B2, “Inhibitors of IMPDH enzyme” (Vertex Pharmaceuticals Incorporated, priority 1996, dated 2008).

pKi: −log10 of the molar value.

The experiment addresses IMPDH human type II (Homo sapiens, UniProt P12268). The experiment is described as follows: IMPDH activity inhibition assay (spectrophotometric, NADH formation at 340 nm). The conditions noted are these: IMPDH human type II, 15 to 50 nM enzyme, 37° C., tight-binding fit (Henderson); read-out: Ki. It counts as biochemical. The method, then: We have measured the inhibition constants of each compound against IMPDH using an adaptation of the method first reported by […]. Moyed, and […]. Biol. Chem., 226, p. 339 (1957)]. We measured the inhibition constants of the compounds listed in Table III utilizing the following protocol: IMP dehydrogenase activity was assayed following an adaptation of the method first reported by […]. Moyed, H. S. and […]. Biol. Chem. 226, 339]. Enzyme activity was measured spectrophotometrically, by monitoring the increase in absorbance at 340 nm due to the formation of NADH (ε340 is 6220 M^-1 cm^-1). The reaction mixture contained 0.1 M Tris pH 8.0, 0.1 M KCl, 3 mM EDTA, 2 mM DTT, […] and enzyme (IMPDH human type II) at a concentration of 15 to 50 nM. This solution is incubated at 37° C. for 10 minutes. The reaction is started by adding NAD to a final concentration of 0.1 M and the initial rate is measured by following the linear increase in absorbance at 340 nm for 10 minutes. For reading in a standard spectrophotometer (path length 1 cm) the final volume in the cuvette is 1.0 ml. The assay has also been adapted to a 96 well microtiter plate format; in this case the concentrations of all the reagents remain the same and the final volume is decreased to 200 μl. For the analysis of inhibitors, the compound in question is dissolved in DMSO to a final concentration of 20 mM and added to the initial assay mixture for preincubation with the enzyme at a final volume of 2-5% (v/v). The reaction is started by the addition of NAD, and the initial rates measured as above. […] The designation “ND” is used where a given compound was not tested.
Take `COc1cc(NC(=O)Nc2cccc(CNC(=O)OCCCCCO)c2)ccc1-c1cnco1` [Compound 141]: the pKi (as a rule, the negative decadic logarithm of the Ki, by convention in mol/L) is 7.30 to 11.00.

In the case of `COc1cc(NC(=O)Nc2cccc(CNC(=O)OC3CCCN(C(=O)OC(C)(C)C)C3)c2)ccc1-c1cnco1` (centres unmarked) [Compound 143], the pKi is 6.00 to 7.29.

As to `COc1cc(NC(=O)Nc2cccc(CNC(=O)OC3C(=O)OCC3(C)C)c2)ccc1-c1cnco1` (centres unmarked) [Compound 144], the pKi is 6.00 to 7.29.

Regarding `COc1cc(NC(=O)Nc2cccc(CNC(=O)OCCCSC)c2)ccc1-c1cnco1` [Compound 145], the pKi was 7.30 to 11.00.

For the molecule `COc1cc(NC(=O)Nc2cccc(CNC(=O)OCC3CCOC(C)(C)O3)c2)ccc1-c1cnco1` (centres unmarked) [Compound 146], the negative logarithm of the Ki (pKi) is 7.30 to 11.00.

As to `COc1cc(NC(=O)Nc2cccc(CNC(=O)OCC3CCN(C(=O)OC(C)(C)C)CC3)c2)ccc1-c1cnco1` [Compound 148], the pKi was 7.30 to 11.00.

Consider `COc1cc(NC(=O)Nc2cccc(CNC(=O)OCC3CCCN(C(=O)OC(C)(C)C)C3)c2)ccc1-c1cnco1` (centres unmarked) [Compound 149], for which the pKi was 7.30 to 11.00.

On to `COc1cc(NC(=O)Nc2cccc(CNC(=O)OC(CO)CO)c2)ccc1-c1cnco1` [Compound 151], for which the pKi was 6.00 to 7.29.

Turning to `COc1cc(NC(=O)Nc2cccc(CNC(=O)OCC3CCCCN3C(=O)OC(C)(C)C)c2)ccc1-c1cnco1` (centres unmarked) [Compound 152], the pKi is 6.00 to 7.29.

`COc1cc(NC(=O)Nc2cccc(CNC(=O)OC3CCCNC3)c2)ccc1-c1cnco1` (centres unmarked) [Compound 153]: the pKi is 7.30 to 11.00.

With `COc1cc(NC(=O)Nc2cccc(CNC(=O)OCC3CCCCO3)c2)ccc1-c1cnco1` (centres unmarked) [Compound 154], the pKi was 7.30 to 11.00.

As for `COc1cc(NC(=O)Nc2cccc(CNC(=O)OCC3CCNCC3)c2)ccc1-c1cnco1` [Compound 155], the pKi was 7.30 to 11.00.

With `COc1cc(NC(=O)Nc2cccc(CNC(=O)OCCCS(C)(=O)=O)c2)ccc1-c1cnco1` [Compound 157], the pKi is 6.00 to 7.29.

For `COc1cc(NC(=O)Nc2cccc(CNC(=O)OCC3CCCNC3)c2)ccc1-c1cnco1` (centres unmarked) [Compound 158], the pKi was 6.00 to 7.29.

For `COc1cc(NC(=O)Nc2cccc(CNC(=O)OCC3CCCCN3)c2)ccc1-c1cnco1` (centres unmarked) [Compound 159], the pKi is 7.30 to 11.00.

In the case of `COc1cc(NC(=O)Nc2cccc(CNC(=O)OC3CCSC3)c2)ccc1-c1cnco1` (centres unmarked) [Compound 160], the pKi is 7.30 to 11.00.

Regarding `COc1cc(NC(=O)Nc2cccc(CNC(=O)OC3CCCSC3)c2)ccc1-c1cnco1` (centres unmarked) [Compound 161], the negative-log Ki (pKi) is 7.30 to 11.00.

As to `COCCCOC(=O)NCc1cccc(NC(=O)Nc2ccc(-c3cnco3)c(OC)c2)c1` [Compound 162], the negative-log Ki (pKi) was 7.30 to 11.00.

For `CC(=O)N(C)c1cccc(NC(=O)Nc2ccc(C#N)c(Cl)c2)c1` [Compound 163], the pKi was 6.00 to 7.29.

In the case of `COc1cc(NC(=O)Nc2cccc(N(C)C(C)=O)c2)ccc1C#N` [Compound 164], the pKi was 6.00 to 7.29.

Take `CSc1cc(NC(=O)Nc2cccc(CNC(=O)O[C@H]3CCOC3)c2)ccc1C#N` [Compound 165]: the pKi is 7.30 to 11.00.

As for `CC(=O)N(C)c1cccc(NC(=O)Nc2ccc(C#N)c(S(C)(=O)=O)c2)c1` [Compound 166], the pKi is below 5.00.

On to `CSc1cc(NC(=O)Nc2cccc(CNC(=O)O[C@H]3CCOC3)c2)ccc1C#N` [Compound 168], for which the pKi is 6.00 to 7.29.
